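48-hour exposure; five concentrations; linearly interpolated endpoints. At the GI50, growth is halved. TGI: concentration producing complete growth inhibition.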

Test systems include HL-60(TB) leukemia; A549 NSCLC; SR leukemia; SF-268 CNS; HT29 colon; COLO 205 colon; NCI/ADR-RES ovarian; MDA-MB-231 breast; DU-145 prostate; BT-549 breast.
Common to all, as to test: NCI tumour cell line growth inhibition, 48 h

For `Fc1ccc(C2SCc3nc4ccccc4n32)c(F)c1` (centres undefined), the TGI with HL-60(TB) leukemia was 56.2 µM; in the experiment with A549 NSCLC, greater than 100 µM; in the experiment with SR leukemia it was greater than 100 µM; in the experiment on SF-268 CNS, greater than 100 µM; with HT29 colon, greater than 100 µM; in the experiment on COLO 205 colon, greater than 100 µM.
Turning to `Clc1ccc(Nc2nc3ccccc3nc2-c2cccs2)cc1Cl`, the TGI with HL-60(TB) leukemia was 78.3 µM; in the experiment with A549 NSCLC, greater than 100 µM; in the experiment on SR leukemia, greater than 100 µM; in the experiment on SF-268 CNS, greater than 100 µM; in the experiment with HT29 colon, greater than 100 µM; in the experiment on COLO 205 colon, greater than 100 µM.
As to `COc1ccc(-c2cc(Cc3cccs3)c(=O)[nH]n2)cc1`, the TGI with A549 NSCLC, in the experiment on SF-268 CNS, in the experiment on HT29 colon and in the experiment with COLO 205 colon was greater than 100 µM throughout.
Turning to `COc1cc2c3c(n(C)c(=O)c2cc1OC)-c1cc2c(cc1/C3=C\CCCCN1C(=O)c3ccccc3C1=O)OCO2`, the GI50 is 7.03 µM in the experiment with A549 NSCLC; 9.12 µM with SF-268 CNS; 18 µM in the experiment on HT29 colon; 24.1 µM in the experiment with NCI/ADR-RES ovarian; 6.28 µM with COLO 205 colon; 13.3 µM in the experiment with MDA-MB-231 breast. Further, the TGI in the experiment on A549 NSCLC was 27.9 µM; in the experiment on SF-268 CNS it was greater than 100 µM; in the experiment with HT29 colon, greater than 100 µM; in the experiment with NCI/ADR-RES ovarian it was greater than 100 µM; with COLO 205 colon, greater than 100 µM; in the experiment with MDA-MB-231 breast, 38.3 µM.
With `CCCCCCCCCCCCCCCCCC1=NCCN1CCOC1=C(Cl)C(=O)c2ccccc2C1=O`, the GI50 was 1.34 µM with HL-60(TB) leukemia; 4.48 µM in the experiment with A549 NSCLC; 2.07 µM in the experiment with SR leukemia; 6.09 µM in the experiment on DU-145 prostate; 2.08 µM in the experiment on SF-268 CNS; 2.58 µM in the experiment on HT29 colon. Further, the GI50 was 1.67 µM with COLO 205 colon, 2.05 µM in the experiment with MDA-MB-231 breast and 2.46 µM with BT-549 breast. Moreover, the TGI in the experiment on HL-60(TB) leukemia is 6 µM; with A549 NSCLC, 22.9 µM; in the experiment on SR leukemia, 4.72 µM; in the experiment on DU-145 prostate, 18.1 µM; in the experiment on SF-268 CNS, 4.61 µM; in the experiment on HT29 colon it was 6.13 µM. Further, the TGI was determined as 3.09 µM in the experiment with COLO 205 colon, 5.03 µM in the experiment on MDA-MB-231 breast and 6.12 µM with BT-549 breast.
With `CO[C@H]1CC(O[C@@H]2/C(C)=C/C[C@@H]3C[C@@H](C[C@]4(C=C[C@H](C)[C@@H](C5CCCCC5)O4)O3)OC(=O)[C@@H]3C=C(C)[C@@H](O)[C@H]4OC/C(=C\C=C\[C@@H]2C)[C@]43O)O[C@@H](C)C1O[C@H]1C[C@H](OC)[C@@H](O)[C@H](C)O1` (some centres undefined), the GI50 is 1.86 µM in the experiment with SR leukemia; 1.69 µM in the experiment with SF-268 CNS; 1.87 µM with HT29 colon; 2.03 µM with COLO 205 colon; 1.78 µM in the experiment on BT-549 breast. Further, the TGI was 4.62 µM with SR leukemia; 3.18 µM in the experiment on SF-268 CNS; 3.85 µM in the experiment on HT29 colon; 3.71 µM in the experiment with COLO 205 colon; 3.24 µM in the experiment on BT-549 breast.
Take `COc1ccc(-c2[nH]c3ccccc3c2-c2ccc(OC)cc2)cc1`: the GI50 is 2.03 µM with HL-60(TB) leukemia; 7.14 µM with A549 NSCLC; 3.58 µM with DU-145 prostate; 3.99 µM with SF-268 CNS; 2.99 µM with HT29 colon; 3.82 µM in the experiment on NCI/ADR-RES ovarian. Also, the GI50 was 4.13 µM with COLO 205 colon and 4.69 µM in the experiment with MDA-MB-231 breast. Also, the TGI is 6.03 µM with HL-60(TB) leukemia; 30.3 µM in the experiment with A549 NSCLC; 11.4 µM with DU-145 prostate; 15.1 µM in the experiment with SF-268 CNS; 11.9 µM with HT29 colon; 15 µM in the experiment with NCI/ADR-RES ovarian. The TGI in the experiment with COLO 205 colon came to 16.8 µM; in the experiment with MDA-MB-231 breast it was 23.5 µM.
Regarding `O=C(/C=C\c1cccc([N+](=O)[O-])c1)/C=C/c1cccc([N+](=O)[O-])c1`, the GI50 is 3.21 µM in the experiment with A549 NSCLC; 3.49 µM in the experiment with DU-145 prostate; 3.08 µM in the experiment with SF-268 CNS; 1.4 µM with HT29 colon; 20.2 µM in the experiment on NCI/ADR-RES ovarian; 3.03 µM with COLO 205 colon. The GI50 with MDA-MB-231 breast is 14.4 µM; with BT-549 breast it was 3.48 µM. Moreover, the TGI is 12.2 µM in the experiment on A549 NSCLC; 56 µM with DU-145 prostate; 9.89 µM in the experiment on SF-268 CNS; 3.32 µM in the experiment with HT29 colon; greater than 100 µM in the experiment on NCI/ADR-RES ovarian; 7.94 µM in the experiment with COLO 205 colon. For the same molecule, the TGI in the experiment with MDA-MB-231 breast is greater than 100 µM; in the experiment on BT-549 breast, 12.5 µM.
As to `C#C[C@]1(O)CCCC2=CC(=O)CC[C@@]21C`, the TGI with HL-60(TB) leukemia, in the experiment with A549 NSCLC, in the experiment with SR leukemia, in the experiment on SF-268 CNS, in the experiment on HT29 colon and with COLO 205 colon was greater than 100 µM each time.
Consider `Cc1ccc(-c2nnc(-c3nn(-c4ccccc4)c4nc5ccccc5nc34)o2)cc1`, for which the TGI with HL-60(TB) leukemia was greater than 100 µM; with A549 NSCLC, 41.4 µM; with SR leukemia, greater than 100 µM; in the experiment on SF-268 CNS it was 38.4 µM; with HT29 colon, greater than 100 µM; in the experiment with COLO 205 colon, greater than 100 µM.
For `O=C1CC(c2c[nH]c3ccccc23)C(=O)N1` (centres undefined), the TGI in the experiment with HL-60(TB) leukemia, in the experiment on A549 NSCLC and with HT29 colon was greater than 100 µM each time.
As to `O=C1C(=C([O-])c2ccccc2)C(=O)c2ccccc21.O=C1C(=C([O-])c2ccccc2)C(=O)c2ccccc21.[Fe+2]`, the GI50 in the experiment on HL-60(TB) leukemia was 80.9 µM; in the experiment on A549 NSCLC, 54.7 µM; in the experiment with SF-268 CNS it was greater than 100 µM; in the experiment on HT29 colon it was greater than 100 µM; with COLO 205 colon, 38.2 µM. For the same molecule, the TGI in the experiment on HL-60(TB) leukemia, in the experiment on A549 NSCLC, in the experiment with SF-268 CNS, with HT29 colon and in the experiment on COLO 205 colon was greater than 100 µM throughout.
Consider `CC/C=C\C/C=C\C/C=C\CCCCCCCC(=O)OCC(O)CO` (centres undefined), for which the TGI with HL-60(TB) leukemia is greater than 46 µM; with A549 NSCLC, greater than 100 µM; in the experiment on SR leukemia, greater than 100 µM; in the experiment with SF-268 CNS it was greater than 100 µM; in the experiment on HT29 colon, greater than 100 µM; in the experiment on COLO 205 colon it was greater than 100 µM.

Values taken from PubChem BioAssay (NCI).
